Data set [1] concerns the target T1, Voltage-gated L-type calcium channel (Rattus norvegicus, UniProt P22002+Q02485+P27732). Description: Inhibition of L-type [Ca2+] channel (VSCC) in rat A7r5 vascular smooth muscle cells.
The target of data set [2] is T2, Voltage-dependent N-type calcium channel subunit alpha-1B (Homo sapiens, UniProt Q00975). Description: Inhibition of N-type calcium channel (VSCC) in IMR-32 at 10 uM.
Target sequence in this assay (Q00975 whole entry, looked up): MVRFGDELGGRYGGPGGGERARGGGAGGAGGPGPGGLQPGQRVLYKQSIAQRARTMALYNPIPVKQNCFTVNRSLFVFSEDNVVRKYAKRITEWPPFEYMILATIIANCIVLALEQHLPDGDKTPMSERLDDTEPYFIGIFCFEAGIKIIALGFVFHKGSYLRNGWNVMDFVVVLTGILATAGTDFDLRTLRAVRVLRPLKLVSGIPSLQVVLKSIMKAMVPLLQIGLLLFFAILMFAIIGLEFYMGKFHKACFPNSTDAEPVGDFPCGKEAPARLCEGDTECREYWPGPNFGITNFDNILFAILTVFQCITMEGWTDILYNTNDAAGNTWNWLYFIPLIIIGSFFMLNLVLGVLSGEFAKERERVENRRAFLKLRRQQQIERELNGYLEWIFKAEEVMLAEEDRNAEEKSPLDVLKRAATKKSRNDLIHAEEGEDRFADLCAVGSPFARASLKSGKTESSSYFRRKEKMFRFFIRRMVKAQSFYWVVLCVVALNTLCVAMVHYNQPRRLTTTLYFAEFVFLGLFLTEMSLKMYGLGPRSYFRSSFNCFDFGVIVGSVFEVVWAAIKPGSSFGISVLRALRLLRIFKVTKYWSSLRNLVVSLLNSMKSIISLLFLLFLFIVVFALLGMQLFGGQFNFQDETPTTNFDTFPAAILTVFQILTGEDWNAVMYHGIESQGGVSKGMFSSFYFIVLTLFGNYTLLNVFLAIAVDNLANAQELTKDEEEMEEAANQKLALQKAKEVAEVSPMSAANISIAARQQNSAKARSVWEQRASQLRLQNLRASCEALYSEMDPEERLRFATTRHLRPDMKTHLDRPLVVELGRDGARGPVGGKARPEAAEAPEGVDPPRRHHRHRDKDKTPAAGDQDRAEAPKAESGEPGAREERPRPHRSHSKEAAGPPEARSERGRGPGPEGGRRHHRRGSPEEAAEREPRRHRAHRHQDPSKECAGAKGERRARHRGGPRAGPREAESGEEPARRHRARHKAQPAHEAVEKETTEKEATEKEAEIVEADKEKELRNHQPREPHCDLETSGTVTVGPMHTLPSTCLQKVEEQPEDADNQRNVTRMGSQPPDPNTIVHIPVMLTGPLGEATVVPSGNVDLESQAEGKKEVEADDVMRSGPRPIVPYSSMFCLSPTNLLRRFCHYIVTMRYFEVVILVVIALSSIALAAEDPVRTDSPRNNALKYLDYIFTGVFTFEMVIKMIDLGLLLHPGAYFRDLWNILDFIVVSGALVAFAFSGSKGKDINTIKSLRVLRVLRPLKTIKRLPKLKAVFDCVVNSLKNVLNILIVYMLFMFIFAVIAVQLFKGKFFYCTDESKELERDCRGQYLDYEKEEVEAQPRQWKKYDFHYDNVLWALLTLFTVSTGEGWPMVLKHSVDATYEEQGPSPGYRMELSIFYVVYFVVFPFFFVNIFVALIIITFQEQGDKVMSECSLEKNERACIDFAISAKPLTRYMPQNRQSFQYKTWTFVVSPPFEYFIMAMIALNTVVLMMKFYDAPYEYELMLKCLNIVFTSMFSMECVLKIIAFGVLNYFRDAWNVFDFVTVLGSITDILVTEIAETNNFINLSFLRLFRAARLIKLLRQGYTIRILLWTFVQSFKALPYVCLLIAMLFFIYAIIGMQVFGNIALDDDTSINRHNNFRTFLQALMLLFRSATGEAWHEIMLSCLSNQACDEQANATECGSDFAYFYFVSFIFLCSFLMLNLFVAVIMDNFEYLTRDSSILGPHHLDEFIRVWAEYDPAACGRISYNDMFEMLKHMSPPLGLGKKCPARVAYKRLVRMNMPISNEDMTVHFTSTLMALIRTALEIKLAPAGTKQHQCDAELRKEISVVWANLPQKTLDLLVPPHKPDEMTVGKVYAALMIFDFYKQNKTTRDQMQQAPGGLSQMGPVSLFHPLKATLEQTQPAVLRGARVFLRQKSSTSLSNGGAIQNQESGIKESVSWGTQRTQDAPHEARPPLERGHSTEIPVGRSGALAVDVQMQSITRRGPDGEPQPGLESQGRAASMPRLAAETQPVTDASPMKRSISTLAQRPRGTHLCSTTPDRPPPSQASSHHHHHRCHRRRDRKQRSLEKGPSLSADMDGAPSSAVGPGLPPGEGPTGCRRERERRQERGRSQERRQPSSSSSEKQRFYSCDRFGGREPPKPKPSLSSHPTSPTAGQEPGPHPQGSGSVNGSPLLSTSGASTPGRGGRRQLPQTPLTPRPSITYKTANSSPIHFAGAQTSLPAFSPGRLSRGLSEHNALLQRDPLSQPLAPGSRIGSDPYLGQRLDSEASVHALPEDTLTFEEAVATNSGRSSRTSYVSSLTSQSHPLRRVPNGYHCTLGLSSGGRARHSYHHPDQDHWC
The target of data set [3] is T1, Voltage-gated L-type calcium channel. Description: Inhibition of L-type [Ca2+] channel (VSCC) in rat A7r5 vascular smooth muscle cells. This is another data set of the same source.
Data set [4] addresses T2, Voltage-dependent N-type calcium channel subunit alpha-1B. Briefly: Inhibition of N-type calcium channel (VSCC) in IMR-32 at 10 uM.
Target sequence in this assay (Q00975 whole entry): as the sequence (Q00975 whole entry, looked up) above

pIC50: −log10 of the molar value.

The term Inhibition denotes the change of the read-out against control, counted positive when it falls. In general, inhibition refers to the change of the read-out against control, counted positive when it falls. On to `CC(C)CCOc1cc(OCCCc2ccccc2OCCCc2ccc(O)cc2)cc(OCCc2ccc(C(=N)N)cc2)c1`, for which, in data set [1], the Inhibition turned out to be 69%. Moreover, in data set [2], the inhibition was 19%.
Broadly, the IC50 is the point on the concentration scale where inhibition reaches its midpoint. By pIC50 is commonly meant −log10 of the IC50, conventionally taken in molar units. Take `CC(C)Oc1cc(OCCc2ccc(C(=N)N)cc2)cc(OCc2ccccc2CCc2ccc(O)cc2)c1`: the 50% inhibitory concentration (IC50) in data set [3] came out at 4.2 µM. Moreover, the pIC50 in data set [4] is 5.48.
For the molecule `CC(C)Oc1cc(OCCc2ccc(C(=N)N)cc2)cc(OCc2ccccc2CCc2cccc(O)c2)c1`, the half-maximal inhibitory concentration (IC50) in data set [3] was determined as 3 µM. In data set [4], the pIC50 is 5.57.
